Laboratory results taken from patent publication US20090148850A1, “Methods for identifying modulators of P2RY14” (priority 2007, published 2009).

Experiments:
[1] = system: simian (chimpanzee) P2RY14; assay: FLIPR whole cell Ca2+ agonist assay, HEK cells expressing simian (chimpanzee) P2RY14 and Gqi5; format: cell-based
Description: (§1) Stable HEK clonal cell lines expressing P2RY14 and the chimeric G protein Gqi5 were constructed. The chimeric Gqi5 forces the coupling of P2RY14 through the Gq (calcium) pathway and allows for monitoring of calcium signaling using a calcium binding fluorescent dye and a FLIPR (fluorometric imaging plate reader, MDS Sciex). Vector pCEP4 comprising the chimeric Gqi5 was obtained from Molecular Devices, Sunnyvale, Calif. (Cat. No. RD-PGQI5).
The simian (chimpanzee) P2RY14 nucleic acid fragment was synthesized based upon the Ensembl Gene ID ENSPTRG00000030093 by Bio S & T, Montreal, Quebec, Canada, to be flanked with KpnI and NotI restriction enzyme sites. […] The DNA fragment was digested with KpnI and NotI and then cloned into a pcDEF3 vector previously digested with KpnI and NotI to place the DNA fragment in the proper orientation downstream of the human EF-1a promoter. The nucleic acid encoding the simian P2RY14 was under the control of the human EF-1a promoter.
(§2) Cells were grown in DMEM medium containing 25 mM HEPES, pH 7.4 and 10% FBS, 50 units/ml penicillin/50 μg/ml streptomycin, 2 mM glutamine and 1 mM sodium pyruvate at 37° C. in humidified air containing 5% CO2. Two days post-transfection, cells were grown under selection in the DMEM medium as indicated above and supplemented with 200 μg/ml Hygromycin B and 250 μg/ml geneticin.
(§3) Cells were incubated overnight at 37° C. and 5% CO2 to form a monolayer. On the following day, 30 μl of fluorescent no-wash dye was added to the cell monolayer and the plate was incubated for 60 minutes at 37° C., 5% CO2.
(§4) For agonist assays, 6.12 μl of 10× agonist solution was added to the cell/dye incubation and Ca^2+ signaling was monitored by FLIPR. For antagonist assays, 250 nl of compound in 100% DMSO was added to cell/dye mixture; following a 20 minute incubation at room temperature, 6.12 μl of 10× agonist solution at EC80 in HBSS containing 20 mM Hepes was added to cells and Ca^2+ signaling was monitored by FLIPR. Quantitation of the % stimulation or inhibition of Ca^2+ signaling by agonist or antagonist, respectively, was calculated using the Max-Min fluorescent signal detected.

mouse P2RY14 [2] = molecular target: T1, mouse P2RY14 (Mus musculus, UniProt Q9ESG6); assay: FLIPR whole cell Ca2+ agonist assay, HEK cells expressing mouse P2RY14 and Gqi5; format: cell-based
T1 construct: expressed in transfected cells
T1 sequence (Q9ESG6 1-338): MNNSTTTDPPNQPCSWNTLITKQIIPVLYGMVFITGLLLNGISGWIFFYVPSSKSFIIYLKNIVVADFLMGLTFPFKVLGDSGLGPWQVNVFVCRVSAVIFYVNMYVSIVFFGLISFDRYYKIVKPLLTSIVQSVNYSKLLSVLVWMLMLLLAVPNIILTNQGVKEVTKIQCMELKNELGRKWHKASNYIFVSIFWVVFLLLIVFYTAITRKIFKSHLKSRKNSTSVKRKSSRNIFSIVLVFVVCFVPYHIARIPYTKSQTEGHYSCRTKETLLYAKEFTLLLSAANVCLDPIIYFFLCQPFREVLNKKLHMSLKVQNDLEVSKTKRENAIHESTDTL
Description: as §1
The nucleic acid encoding the mouse P2RY14 was under the control of the CMV promoter.
as §2, §3, §4

[3] = system: simian (chimpanzee) P2RY14; assay: CellKey System live cell functional assay, simian P2RY14; format: cell-based; details: HEK cells expressing simian P2RY14 and Gqi5
Method: (§5) The Cellkey System™ (MDS Sciex), a novel, live cell, label-free, real-time technology, was used to examine P2RY14 activation following agonist stimulation. The CellKey System™ is based on cellular dielectric spectroscopy (CDS) and monitors changes in impedance of the applied electrical current through the cell monolayer upon receptor activation.
(§6) On the following day, growth medium was removed from the cell monolayer and replaced with 135 μl of HBSS pH 7.4 containing 20 mM Hepes for a 30 minutes pre-incubation period at room temperature. Baseline measurements were made for 5 minutes at 28° C. prior to ligand addition. For agonist assays, 15 μl of 10× agonist diluted in HBSS pH 7.4 containing 20 mM HEPES was added to the cell monolayer simultaneously using the 96 multichannel head from the CellKey™ System. Cellular response was monitored for 10 minutes to assess cellular response after ligand addition.

mouse P2RY14 [4] = molecular target: T1, mouse P2RY14; assay: CellKey System live cell functional assay, mouse P2RY14; format: cell-based; details: HEK cells expressing mouse P2RY14 and Gqi5
Method: as §5, §6

[5] = system: HEK cells not expressing P2RY14; assay: FLIPR Ca2+ release in HEK cells not expressing P2RY14 (specificity); format: cell-based
simian P2RY14 = assay: Membrane filtration binding assay, simian P2RY14; design: species or system chimpanzee
Method: (§7) Membrane preparations were made by N2 cavitation using a Parr unit. […] Cell were Dounce homogenized (size B, 10 strokes) and then added to the cavitation unit. Pressure was adjusted to 800 psi and cells were left under pressure for 30 minutes. Broken cells were released drop by drop and spun at 1000 g for 10 minutes. Supernatent was spun at 160,000 g (rotor type 60 Ti, 40000 rpm for 30 min). Pellet was resuspended in 10 mM HEPES/KOH pH 7.4, 1 mM EDTA in ⅕ the original volume, dounce homogenized (size A, 10 strokes), aliquoted, and frozen at −80° C.
Binding assays were performed in 10 mM Hepes pH 7.4 (KOH), 5 mM MnCl2, 5 mM MgCl2 buffer. Membranes (10 μg/well for human P2RY14 and 30 μg/well for simian P2RY14) were incubated with 10 nM [5.6-^3H] Uridine 5′-triphosphate (UTP), ammonium salt from Amersham Biosciences (# TRK412) in presence of compounds diluted in DMSO (2% final in assay), in a total volume of 100 μl. 50 minutes (human P2RY14) or 60 minutes (simian) P2RY14) incubations were performed at room temperature with shaking. […] To examine the stability of [^3H]-UTP in the membrane filtration binding assay, 100 ul aliquots of the reaction mixture were extracted at 2, 10, 20, 40, 60 and 90 minutes with 100 uL of cold 80 mM EDTA solution (pH 8) and 200 uL of cold Acetonitrile. After mixing, proteins were precipitated by centrifugation at 13000 rpm for 10 minutes at 4° C. […] After 0.5 min at 10:90 50 mM KH2PO4/750 mM KH2PO4, a gradient was applied in order to increase to 100% 750 mM KH2PO4 at 5 min, after which this composition was maintained for an additional 3 min. Samples were kept at 4° C. prior to HPLC analysis

rat P2YR14 receptor = molecular target: T2, rat P2YR14 receptor (Rattus norvegicus, UniProt O35881); details: Fricks et al. 2007; cited from earlier work
T2 sequence (O35881 1-305): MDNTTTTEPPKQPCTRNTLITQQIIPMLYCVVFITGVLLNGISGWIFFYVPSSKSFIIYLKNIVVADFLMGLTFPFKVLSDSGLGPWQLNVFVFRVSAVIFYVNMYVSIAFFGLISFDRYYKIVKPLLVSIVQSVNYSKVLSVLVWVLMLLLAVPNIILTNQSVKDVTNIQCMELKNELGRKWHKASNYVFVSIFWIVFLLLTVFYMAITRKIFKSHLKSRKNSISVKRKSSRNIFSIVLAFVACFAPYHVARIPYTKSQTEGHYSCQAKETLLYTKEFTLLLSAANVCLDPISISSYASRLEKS

[6] = HPLC analysis of [3H]-UTP stability in the P2RY14 membrane filtration binding assay; details: 60 minute incubation
Method: Binding assays were performed in 10 mM Hepes pH 7.4 (KOH), 5 mM MnCl2, 5 mM MgCl2 buffer. Membranes (10 μg/well for human P2RY14 and 30 μg/well for simian P2RY14) were incubated with 10 nM [5.6-^3H] Uridine 5′-triphosphate (UTP), ammonium salt from Amersham Biosciences (# TRK412) in presence of compounds diluted in DMSO (2% final in assay), in a total volume of 100 μl. 50 minutes (human P2RY14) or 60 minutes (simian) P2RY14) incubations were performed at room temperature with shaking. […] Incubation mixtures were filtered on GF/C Packard filter membranes (#6065174) and washed with cold 10 mM Hepes/KOH buffer at pH 7.4 (2×3.7 ml) using a Tomtek Mach III harvester. GF/C filters were subsequently dried at 55° C. in a vacuum oven for 1 hour before addition of 25 μl/well Ultima Gold F scintillation fluid from Packard (#6013179) and counted in a Wallac Microbeta counter normalized for ^3H (2 min/well). Counts (ccpms) generated by non specific binding were subtracted from total counts, to give specific binding which was expressed as % of total binding and K is were calculated by data analyzer using the inflection point of the dose dependant sigmoidal curve generated for each compound. Kds for [^3H]-UTP/[^3H]-UDP in the human and simian assays were determined by Scatchard analysis and are as follow: 10.03 nM for human P2RY14 and 10.25 nM for simian P2RY14. […]

P2RY14 = molecular target: T3, P2RY14 (Homo sapiens, UniProt Q15391); assay: Membrane filtration binding assay, human P2RY14; design: expressed in transfected cells; details: human P2RY14 (data not shown)
T3 sequence (Q15391 1-338): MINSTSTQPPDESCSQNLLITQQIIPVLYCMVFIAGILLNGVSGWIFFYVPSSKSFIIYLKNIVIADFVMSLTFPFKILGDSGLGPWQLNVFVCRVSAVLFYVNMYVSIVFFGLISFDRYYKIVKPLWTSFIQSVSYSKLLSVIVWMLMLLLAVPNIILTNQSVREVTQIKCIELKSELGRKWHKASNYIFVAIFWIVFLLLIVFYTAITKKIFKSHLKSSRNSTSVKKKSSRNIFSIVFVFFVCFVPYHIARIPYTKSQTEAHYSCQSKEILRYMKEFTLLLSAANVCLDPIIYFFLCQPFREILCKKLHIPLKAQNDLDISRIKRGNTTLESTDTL
Method: as §7
Binding assays were performed in 10 mM Hepes pH 7.4 (KOH), 5 mM MnCl2, 5 mM MgCl2 buffer. Membranes (10 μg/well for human P2RY14 and 30 μg/well for simian P2RY14) were incubated with 10 nM [5.6-^3H] Uridine 5′-triphosphate (UTP), ammonium salt from Amersham Biosciences (# TRK412) in presence of compounds diluted in DMSO (2% final in assay), in a total volume of 100 μl. 50 minutes (human P2RY14) or 60 minutes (simian) P2RY14) incubations were performed at room temperature with shaking. […] To examine the stability of [^3H]-UTP in the membrane filtration binding assay, 100 ul aliquots of the reaction mixture were extracted at 2, 10, 20, 40, 60 and 90 minutes with 100 uL of cold 80 mM EDTA solution (pH 8) and 200 uL of cold Acetonitrile. After mixing, proteins were precipitated by centrifugation at 13000 rpm for 10 minutes at 4° C. […]

Structure (SMILES) | activation of P2RY14 (Ca2+ signaling) [1] | activation of P2RY14 (Ca2+ signaling) (mouse P2RY14 [2]) | P2RY14 signaling (impedance, CellKey) [3] | P2RY14 signaling (impedance, CellKey) (mouse P2RY14 [4]) | Ca2+ release in cells not expressing P2RY14 [5] | competition for [3H]-UTP/[3H]-UDP binding (simian P2RY14; simian P2RY14 membranes) | mode of action at receptor (rat P2YR14 receptor) | specific binding window as radioligand (simian P2RY14; HEK cells expressing simian P2RY14, membrane filtration) | stability of radioligand in membrane filtration binding assay [6] | time of conversion to [3H]-UDP [6] [min] | specific binding window as radioligand (P2RY14)
O=c1ccn([C@@H]2O[C@H](COP(=O)(O)OP(=O)(O)O)[C@@H](O)[C@H]2O)c(=O)[nH]1 [UDP] | activated | activated | mediated signaling | mediated signaling | do not stimulate Ca^2+ release | able to successfully compete | full agonist |  |  |  | 
N.N.N.N.[3H]c1c([3H])n([C@@H]2O[C@H](COP(=O)(O)OP(=O)(O)OP(=O)(O)O)[C@@H](O)[C@H]2O)c(=O)[nH]c1=O [[^3H]-UTP, [5.6-^3H] Uridine 5′-triphosphate (UTP), ammonium salt] |  |  |  |  |  |  |  | a specific binding window | converted predominantly to [^3H]-UDP | ≤ 10 | a specific binding window
